Assay in all cases: relative viability (nuclei count vs DMSO), 5 days (fraction); higher = more cells survive
Compound in assay [1]: CC1=CC=C(C=C1)C(=O)CN2C3=C(CCCC3)SC2=N [Pifithrin_alpha] + COc1cc2c(Oc3ccc(NC(=O)C4(C(=O)Nc5ccc(F)cc5)CC4)cc3F)ccnc2cc1OCCCN1CCOCC1 [Foretinib] (partner 0.25 µM)
The essentials: (§1)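 The day after seeding in 1536-well plates, lung cancer cell lines were treated by pin tool with a single drug, or with a fixed anchor-drug dose together with five library-drug doses (not always all listed) in √10 steps. After 5 days, a combined fix-and-stain solution (final 0.05% Triton X-100, 1% formaldehyde, 1 ug/ml Hoechst) was added. Nuclei counted on 4× images gave relative viability as treated counts over vehicle counts, reported as the median of duplicate plates.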

Compound in assay [2]: CC1=CC=C(C=C1)C(=O)CN2C3=C(CCCC3)SC2=N [Pifithrin_alpha] + CC(C)C[C@H](NC(=O)[C@H](Cc1ccccc1)NC(=O)c1cnccn1)B(O)O [Bortezomib] (partner 0.002 µM)
The gist of the method: as §1

Compound in the assay “Bemcentinib + Tozasertib”: Nc1nc(Nc2ccc3c(c2)CC[C@@H](N2CCCC2)CC3)nn1-c1cc2c(nn1)-c1ccccc1CCC2 [Bemcentinib] + Cc1cc(Nc2cc(N3CCN(C)CC3)nc(Sc3ccc(NC(=O)C4CC4)cc3)n2)n[nH]1 [Tozasertib] (partner 0.1 µM)
The essentials:
as §1

Compound in the assay “Bemcentinib + Phenformin”: Nc1nc(Nc2ccc3c(c2)CC[C@@H](N2CCCC2)CC3)nn1-c1cc2c(nn1)-c1ccccc1CCC2 [Bemcentinib] + N=C(N)NC(=N)NCCc1ccccc1 [Phenformin] (partner 250 µM)
The gist of the method: as §1

For the cell line NCI-H650, the relative viability in assay [1] (first compound 3.162 µM) turned out to be 0.996; in assay [1] (first compound 10 µM) it was 1.05; in assay [1] (first compound 31.62 µM), 0.793; in assay [1] (first compound 100 µM), 0.902; in assay [2] (first compound 3.162 µM), 1; in assay [2] (first compound 10 µM) it was 0.804. For the same cell line, the relative viability in assay [2] (first compound 31.62 µM) was found to be 0.51; in assay [2] (first compound 100 µM), 0.725; in the assay with Bemcentinib + Tozasertib (first compound 0.04 µM), 0.715; with Bemcentinib + Tozasertib (first compound 0.1265 µM), 0.848; with Bemcentinib + Tozasertib (first compound 0.4 µM), 0.798; in the assay with Bemcentinib + Tozasertib (first compound 1.265 µM) it was 0.77. Besides, the relative viability in the assay with Bemcentinib + Tozasertib (first compound 4 µM) turned out to be 0.718; in the assay with Bemcentinib + Phenformin (first compound 0.04 µM), 0.407; with Bemcentinib + Phenformin (first compound 0.1265 µM) it was 0.487; in the assay with Bemcentinib + Phenformin (first compound 0.4 µM) it was 0.484; with Bemcentinib + Phenformin (first compound 1.265 µM), 0.429; with Bemcentinib + Phenformin (first compound 4 µM) it was 0.415.

For the origin of these results see the supplement of paper PMC10307832.
